Experimental data reported in US6495699B2, “Metalloproteinase inhibitors, pharmaceutical compositions containing them, and their use” (Agouron Pharmaceuticals Inc., priority 1996, dated 2002).
Structures can show the parent of a compound that is named as a salt.

Columns and labels:
[1] = biological target: T1, fibroblast collagenase-1 catalytic domain (HFC) (Homo sapiens, UniProt P03956); assay: Fluorometric MCA-peptide hydrolysis assay, fibroblast collagenase-1 (HFC); assay type: biochemical; conditions: apparent Ki; 10 μM MCA peptide substrate, 37° C., pH 7.5; read-out: HFC (Ki,app)
T1 construct: The catalytic domain of human collagenase-1 was expressed as a fusion protein with ubiquitin in E. coli; ubiquitin (cleaved yes); made in house; host or cells: E. coli
T1 sequence (P03956 100-269 limits assumed): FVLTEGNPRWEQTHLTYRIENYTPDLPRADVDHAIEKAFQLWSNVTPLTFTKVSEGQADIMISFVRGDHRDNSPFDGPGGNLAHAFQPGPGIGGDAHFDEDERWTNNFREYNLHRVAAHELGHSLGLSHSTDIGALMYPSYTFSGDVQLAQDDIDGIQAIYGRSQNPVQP
Protocol: The catalytic domain of human collagenase-1 was expressed as a fusion protein with ubiquitin in E. coli (see Gehring, E. R., J Biol. Chem., 1995, 270, 22507). After purification of the fusion protein, the fibroblast collagenase-1 catalytic domain (HFC) was released either by treatment with purified, active stromelysin-1 (1:50 w/w ratio), which generated nearly 100% N-terminal Phe1, or by autoprocessing the concentrated collagenase-1 fusion and then incubating at 37° C. for 1 hour. Final purification was completed using zinc chelate chromatography.
(§1) Assays were performed in assay buffer (50 mM Tricine pH 7.5, 200 mM sodium chloride, 10 mM calcium chloride, 0.5 mM zinc acetate containing 2% dimethyl sulfoxide (DMSO)) once the substrate and inhibitor were diluted into it. Stock solutions of inhibitors were prepared in 100% DMSO. Stock solutions of the substrate were prepared in 100% DMSO at a concentration of 6 mM.
(§2) The assay method was based on the hydrolysis of MCA-Pro-Leu-Gly-Leu-DPA-Ala-Arg-NH2 (American Peptide Co.) at 37° C. (see Knight, C. G. et al., FEBS, 1992, 296, 263-266). The fluorescence changes were monitored with a Perkin-Elmer LS-50B fluorimeter using an excitation wavelength of 328 nm and an emission wavelength of 393 nm. The substrate concentration used in the assays was 10 μM. The inhibitor was diluted into the assays from a solution in 100% DMSO, and controls substituted an equal volume of DMSO so that the final DMSO concentration from inhibitor and substrate dilution in all assays was 2%. […] Proper determination of steady-state rates of substrate cleavage required assay lengths of 60 minutes to allow for complete equilibration of the enzyme-inhibitor complex.
(§3) The Km for the MCA peptide substrate with the matrix metalloproteinases is quite high and exceeds its solubility under assay conditions. Consequently, the apparent Ki (Ki,app) was determined to describe the strength of inhibition. However, in this case, Ki,app would be essentially equal to Ki since [S]<<Km. For the determination of Ki,app, the concentration of the inhibitor was varied at a constant and low concentration of substrate and the steady-state rates of fluorescence change determined. In most cases absorptive quench due to the presence of ligand was not observed. For slow-binding inhibitors, onset of inhibition curves were collected for at least 45 minutes so that equilibrium was established. Steady-state rates of fluorescence change were obtained by fitting a curve to an equation for a single exponential decay containing a linear phase. The fitted value of the linear phase was taken as the steady-state rate. The steady-state rates were fitted to the Michaelis equation describing competitive inhibition by non-linear methods. Data resulting from tight-binding inhibition was analyzed, and Ki,app determined by fitting the data to the tight-binding equation of Morrison (Biochem. Biophys. Acta, vol. 185, pp. 269-286 (1969)) by non-linear methods.

[2] = biological target: T2, catalytic domain of human stromelysin (Hsln) (Homo sapiens, UniProt P08254); assay: Fluorometric MCA-peptide hydrolysis assay, stromelysin (Hsln); assay type: biochemical; conditions: apparent Ki; 10 μM MCA peptide substrate, 37° C., pH 7.5; read-out: Hsln (Ki,app)
T2 construct: The catalytic domain of human stromelysin (Hsln) was obtained by expression and purification of a C-terminally truncated prostromelysin-1; made in house; host or cells: E. coli BL21
Protocol: The catalytic domain of human stromelysin (Hsln) was obtained by expression and purification of a C-terminally truncated prostromelysin-1 from E. coli host BL21 (see Marcy et al. Biochem., 1991, 30, 6476). The subsequent activation of the mature form (Hsln) was completed with 2 mM APMA for 1 hour at 37° C., followed by separation using a sizing column.
as §1, §2, §3

[3] = biological target: T3, human collagenase-3 (Coll3) (Homo sapiens, UniProt P45452); assay: Fluorometric MCA-peptide hydrolysis assay, collagenase-3 (Coll3); assay type: biochemical; conditions: apparent Ki; 10 μM MCA peptide substrate, 37° C., pH 7.5; read-out: Coll3 (Ki,app)
T3 construct: the catalytic domain was liberated by treatment with 2 mM APMA at room temperature overnight; ubiquitin (N, cleaved yes); made in house; host or cells: E. coli
Protocol: The propeptide and catalytic domain of human collagenase-3 (Coll3) was expressed in E. coli as an N-terminal fusion protein with ubiquitin. After purification of the fusion from inclusion bodies, the catalytic domain was liberated by treatment with 2 mM APMA at room temperature overnight. Final purification was completed using copper chelate chromatography.
as §1, §2
as §3, with “In most cases absorptive quench due to the presence of ligand was not observed.” left out

[4] = biological target: T4, human progelatinase A (GelA), catalytic and fibronectin-like portion (Homo sapiens, UniProt P08253); assay: Fluorometric MCA-peptide hydrolysis assay, gelatinase A (GelA); assay type: biochemical; conditions: apparent Ki; 10 μM MCA peptide substrate, 37° C., pH 7.5
T4 construct: The catalytic and fibronectin-like portion of human progelatinase A (GelA) was expressed as a fusion protein with ubiquitin; ubiquitin; made in house; host or cells: E. coli
Protocol: The catalytic and fibronectin-like portion of human progelatinase A (GelA) was expressed as a fusion protein with ubiquitin in E. Coli. Assays were carried out on autocatalytically activated material.
as §1, §2, §3

[5] = biological target: T5, Human matrilysin (Matr) (Homo sapiens, UniProt P09237); assay: Fluorometric MCA-peptide hydrolysis assay, matrilysin (Matr); assay type: biochemical; conditions: apparent Ki; 10 μM MCA peptide substrate, 37° C., pH 7.5; read-out: Matr (Ki,app)
T5 construct: the catalytic domain was liberated by treatment with 2 mM APMA at 37° C. for 2 hours; ubiquitin (cleaved yes); made in house; host or cells: E. coli
T5 sequence (P09237 95-267): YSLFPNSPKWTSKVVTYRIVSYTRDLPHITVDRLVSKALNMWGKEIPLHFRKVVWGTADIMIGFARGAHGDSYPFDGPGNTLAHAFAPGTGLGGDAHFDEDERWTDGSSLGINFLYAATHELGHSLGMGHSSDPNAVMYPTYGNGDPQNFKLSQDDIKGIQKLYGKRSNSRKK
Protocol: Human matrilysin (Matr) was expressed in E. coli as a fusion protein with ubiquitin. After purification of the matrilysin/ubiquitin fusion from inclusion bodies, the catalytic domain was liberated by treatment with 2 mM APMA at 37° C. for 2 hours. Final purification was complete using copper chelate chromatography.
as §1, §2, §3

T2 sequence (P08254 100-272 limits assumed): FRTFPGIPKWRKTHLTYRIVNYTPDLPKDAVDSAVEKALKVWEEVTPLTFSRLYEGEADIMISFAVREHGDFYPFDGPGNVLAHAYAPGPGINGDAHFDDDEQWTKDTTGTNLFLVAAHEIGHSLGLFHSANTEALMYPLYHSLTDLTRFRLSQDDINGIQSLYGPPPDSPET
T4 sequence (P08253 110-465 limits assumed): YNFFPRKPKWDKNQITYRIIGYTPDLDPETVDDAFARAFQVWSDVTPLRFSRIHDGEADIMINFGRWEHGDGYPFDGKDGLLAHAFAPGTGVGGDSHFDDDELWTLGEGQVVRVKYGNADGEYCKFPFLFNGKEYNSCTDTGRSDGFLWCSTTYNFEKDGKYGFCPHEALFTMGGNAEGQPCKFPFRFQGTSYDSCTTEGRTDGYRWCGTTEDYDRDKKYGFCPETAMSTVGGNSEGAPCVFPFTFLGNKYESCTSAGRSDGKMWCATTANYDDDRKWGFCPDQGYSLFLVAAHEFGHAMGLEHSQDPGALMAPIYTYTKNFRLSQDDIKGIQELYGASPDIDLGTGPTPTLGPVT

Structure (SMILES)	Ki [1]	Ki [2]	Ki [3]	GelA (Ki,app) [4]	Ki [5]	melting point
CNC(=O)[C@@H](NC(=O)C(CC(=O)NO)n1cnc(-c2ccc(-c3ccccc3)cc2)c1)C(C)(C)C (mixture of isomers) [Example 19(e)]	310 nM	2.3 nM	0.13 nM	–	–	–
O=C(O)C[C@H](C(=O)N[C@H](CO)c1ccccc1)n1ccc(-c2ccc(-c3ccncc3)cc2)c1 [Example 5(b), N-(2-Hydroxy-1(S)-phenylethyl)-3(R)-[3-[4-(pyridin-4-yl)phenyl]-1H-pyrrol-1-yl]succinamic Acid]	> 12000 nM	30 nM	9.1 nM	1.04 nM	5200 nM	–
CC(C)(C)[C@H](NC(=O)[C@@H](CC(=O)O)n1ccc(-c2ccc(-c3ccc(C#N)cc3)cc2)c1)C(=O)Nc1ccncc1 [Example 5(d), 3(R)-[3-(4′-Cyanobiphenyl-4-yl)-1H-pyrrol-1-yl]-N-[2,2-dimethyl-1(S)-(pyridin-4-ylcarbamoyl)propyl]succinamic Acid Formate Salt]	> 2000 nM	1.6 nM	0.23 nM	0.028 nM	4.5 nM	–
COC(=O)c1ccc(NC(=O)[C@H](CC(C)C)NC(=O)[C@@H](CC(=O)O)c2ccsc2)cc1 [Example 17(b), 4-[2(S)-[2(R)-Carboxymethyl-2-(thien-3-yl)acetylamino]-4-methyl-valeroyl]-aminobenzoic Acid Methyl Ester]	20000 nM	720 nM	–	–	309 nM	199 to 201 °C
O=C(O)C[C@H](C(=O)N[C@@H]1c2ccccc2C[C@H]1O)n1ccc(-c2ccc(-c3ccncc3)cc2)c1 [Example 6(a), N-(2(R)-Hydroxyindan-1(R)-yl)-3(R)-[3-[4-(pyridin-4-yl)phenyl]-1H-pyrrol-1-yl]succinamic Acid]	8860 nM	15 nM	15.6 nM	6.62 nM	1500 nM	–
O=C(O)C[C@H](C(=O)N[C@H]1Cc2cn(c3ccccc23)CCCCCCNC1=O)n1cccc1 [Example 1(o), N-(9-oxo-1,8-Diaza-tricyclo[10.6.1.0^13,18]nonadeca-12(19), 13,15,17-tetraen-10S-yl)-3(R)-1H-pyrrol-1-yl-succinamic Acid]	51500 nM	> 10000 nM	–	–	15000 nM	139 to 144 °C
CC(C)(C)[C@@H](CO)NC(=O)[C@@H](CC(=O)NO)n1cnc(-c2ccc(-c3ccccc3)cc2)c1 [Example 19(c), 3(R)-(3-Biphenyl-4-yl-1H-imidazol-1-yl)-N^4-(2,2-dimethyl-1(S)-hydroxymethylpropyl)-N^1-hydroxy-succindiamide]	45000 nM	17 nM	6.5 nM	–	–	157.5 to 160 °C
CC(C)(C)[C@@H](CO)NC(=O)[C@H](CC(=O)NO)n1cnc(-c2ccc(-c3ccccc3)cc2)c1 [Example 19(d), 3(S)-(3-Biphenyl-4-yl-1H-imidazol-1-yl)-N^4-(2,2-dimethyl-1(S)-hydroxymethylpropyl)-N^1-hydroxy-succindiamide]	> 100000 nM	120 nM	43 nM	–	–	134.5 to 136.5 °C
CC(C)(C)[C@@H](CO)NC(=O)C(CC(=O)NO)n1cnc(-c2ccc(-c3ccccc3)cc2)c1 (mixture of isomers) [Example 19(b), 3(RS)-(3-Biphenyl-4-yl-1H-imidazol-1-yl)-N^4-(2,2-dimethyl-1(S)-hydroxymethylpropyl)-N^1-hydroxy-succindiamide]	66000 nM	17 nM	9.7 nM	–	–	–
CNC(=O)[C@@H](NC(=O)[C@@H](CC(=O)O)n1ccc(-c2ccncc2)c1)C(C)(C)C [Example 1(d), N-[2,2-Dimethyl-1(S)-(methylcarbamoyl)propyl]-3(R)-[3-(pyridin-4-yl)-1H-pyrrol-1-yl]succinamic Acid]	4500 nM	1220 nM	24 nM	3.9 nM	–	145 to 148 °C
O=C(CC(C(=O)N[C@H]1CCCCNC1=O)n1cnc(-c2ccc(-c3ccccc3)cc2)c1)NO (mixture of isomers) [Example 19(a)]	57000 nM	31 nM	43 nM	–	–	–
CNC(=O)[C@@H](NC(=O)C(CC(=O)O)n1cnc(-c2ccc(-c3ccccc3)cc2)c1)C(C)(C)C (mixture of isomers) [Example 18(c)]	24000 nM	180 nM	31 nM	–	–	187 to 188.2 °C
COC[C@H](Cc1ccccc1)NC(=O)[C@@H](CC(=O)O)n1ccc(-c2ccc(-c3ccccc3)cc2)c1 [Example 1(f), N-(1(S)-Benzyl-2-methoxyethyl)-3(R)-[3-(biphenyl-4-yl)-1H-pyrrol-1-yl]succinamic Acid]	–	331 nM	542 nM	93 nM	1000 nM	247 °C
NC(=O)c1ccc(-c2ccc(-c3ccn([C@H](CC(=O)O)C(=O)N[C@H](CO)Cc4ccccc4)c3)cc2)cc1 [Example 4(b), N-(1-Benzyl-2-hydroxyethyl)-3(R)-[3-(4′-carbamoylbiphenyl-4-yl)-1H-pyrrol-1-yl]succinamic Acid]	–	23 nM	2.13 nM	1.11 nM	1520 nM	218 to 220 °C
